Literature values as cited in US20150284900A1, “Novel Activator for Hydrogen Peroxide and Its Application” (priority 2014, published 2015).

Settings: in water; room temperature (20° C.)

OO [Activator H2O2, Hydrogen peroxide]
ionization constant: 1.78×10^−12
